The source made the active and inactive calls. No cut-off for these calls is given here.
Columns and labels:
PC-3 = experiment: Growth inhibition of human PC-3 cells incubated for 72 hrs by Cell Titer-Glo luminescent cell viability assay; format: functional
[1] = Growth inhibition of human LNCaP-LN3 cells incubated for 72 hrs by Cell Titer-Glo luminescent cell viability assay; format: functional
[2] = test system: Panel NCI-60 (60 carcinoma cell lines); experiment: Growth inhibition of human NCI60 cells incubated for 72 hrs by Cell Titer-Glo luminescent cell viability assay; format: functional
UMUC3 = conditions: time 72 hrs
[3] = target: T1, Heat shock protein HSP 90-beta (Homo sapiens, UniProt P08238)
Description: Inhibition of FITC-GDA binding to human HSP90-beta incubated for 2 hrs by fluorescence polarization assay

[4] = target: T2, Heat shock protein HSP 90-alpha (Homo sapiens, UniProt P07900)
Description: Inhibition of FITC-GDA binding to human HSP90-alpha incubated for 2 hrs by fluorescence polarization assay

Endoplasmin = Endoplasmin (Canis lupus familiaris, UniProt P41148); experiment: Inhibition of FITC-GDA binding to dog GRP94 incubated for 2 hrs by fluorescence polarization assay
SK-BR-3 [5] = experiment: Induction of heat shock response in human SK-BR-3 cells at 1 uM incubated for 18 hrs by Western blot analysis; format: cell-based; conditions: sk-br-3, 18 h
SK-BR-3 [6] = experiment: Induction of heat shock response in human SK-BR-3 cells at 10 uM incubated for 18 hrs by Western blot analysis; format: cell-based; conditions: sk-br-3, 18 h
[7] = target: T2, Heat shock protein HSP 90-alpha; conditions: HCT-116, dose 300-1000 nM, time 24.0 hrs
[8] = target: T1, Heat shock protein HSP 90-beta; conditions: HCT-116, dose 300-1000 nM, time 24.0 hrs
[9] = target: T1, Heat shock protein HSP 90-beta; conditions: HCT-116, dose 300-1000 nM, time 24.0 hrs; remark: listed apart in the source
[10] = target: T1, Heat shock protein HSP 90-beta; conditions: HCT-116, dose 300-1000 nM, time 24.0 hrs; remark: listed apart in the source
[11] = target: T1, Heat shock protein HSP 90-beta; conditions: HCT-116, dose 300-1000 nM, time 24.0 hrs; remark: listed apart in the source

T1 sequence (P08238 whole entry): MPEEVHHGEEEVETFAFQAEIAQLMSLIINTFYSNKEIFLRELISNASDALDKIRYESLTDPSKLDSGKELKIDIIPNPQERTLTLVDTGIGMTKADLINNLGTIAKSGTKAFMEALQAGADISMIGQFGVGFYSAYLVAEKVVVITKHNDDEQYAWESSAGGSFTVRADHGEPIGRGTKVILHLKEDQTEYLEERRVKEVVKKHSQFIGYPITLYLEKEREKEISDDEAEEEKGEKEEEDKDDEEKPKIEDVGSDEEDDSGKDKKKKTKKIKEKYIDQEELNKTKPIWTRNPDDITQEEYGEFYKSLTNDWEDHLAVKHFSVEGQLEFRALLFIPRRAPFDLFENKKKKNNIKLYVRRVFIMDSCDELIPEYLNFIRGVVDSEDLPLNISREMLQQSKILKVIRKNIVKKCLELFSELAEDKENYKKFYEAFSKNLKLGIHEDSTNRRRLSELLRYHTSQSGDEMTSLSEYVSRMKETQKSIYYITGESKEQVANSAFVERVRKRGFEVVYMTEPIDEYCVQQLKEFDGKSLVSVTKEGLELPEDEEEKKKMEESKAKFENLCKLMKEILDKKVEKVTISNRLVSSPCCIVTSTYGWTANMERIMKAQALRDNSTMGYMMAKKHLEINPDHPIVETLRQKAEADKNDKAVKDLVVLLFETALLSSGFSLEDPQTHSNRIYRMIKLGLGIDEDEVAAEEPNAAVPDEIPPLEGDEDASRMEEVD
Chain of Endoplasmin (P41148 whole entry): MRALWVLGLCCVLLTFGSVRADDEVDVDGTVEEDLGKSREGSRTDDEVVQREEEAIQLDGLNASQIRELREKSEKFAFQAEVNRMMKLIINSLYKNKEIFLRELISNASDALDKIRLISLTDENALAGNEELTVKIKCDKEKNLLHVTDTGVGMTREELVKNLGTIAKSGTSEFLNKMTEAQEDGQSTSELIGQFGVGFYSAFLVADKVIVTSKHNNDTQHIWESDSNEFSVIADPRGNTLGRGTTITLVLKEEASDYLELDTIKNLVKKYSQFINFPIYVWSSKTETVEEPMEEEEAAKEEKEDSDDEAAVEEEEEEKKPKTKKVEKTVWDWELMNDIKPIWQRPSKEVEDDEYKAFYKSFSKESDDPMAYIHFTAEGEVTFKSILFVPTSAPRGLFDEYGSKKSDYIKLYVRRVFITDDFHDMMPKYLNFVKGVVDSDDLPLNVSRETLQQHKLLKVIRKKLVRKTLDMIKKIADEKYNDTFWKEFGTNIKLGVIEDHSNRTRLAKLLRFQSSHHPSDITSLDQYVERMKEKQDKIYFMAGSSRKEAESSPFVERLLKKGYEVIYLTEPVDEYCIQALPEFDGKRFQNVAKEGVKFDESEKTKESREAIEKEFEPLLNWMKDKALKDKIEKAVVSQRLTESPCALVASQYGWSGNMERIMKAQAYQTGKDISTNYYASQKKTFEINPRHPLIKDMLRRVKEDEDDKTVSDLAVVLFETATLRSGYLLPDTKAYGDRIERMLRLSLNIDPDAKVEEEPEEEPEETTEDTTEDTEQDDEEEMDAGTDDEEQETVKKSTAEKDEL

Question: Which results are given for `CCCc1cc2cc(-n3nc(C)c4c3CC(C)(C)CC4=O)cc(N[C@H]3CC[C@H](O)CC3)c2c(=O)[nH]1`?
Answer: GI50 (PC-3): 1560 nM; GI50 [1]: 1070 nM; GI50 [2]: < 100 nM; GI50 (UMUC3): 450 nM

Question: With `Cc1nn(-c2cc(N[C@H]3CC[C@H](O)CC3)c3c(=O)[nH]c(C4CC4)cc3c2)c2c1C(=O)CC(C)(C)C2` as the compound, how does the IC50 [3] read?
Answer: Its IC50 is 946 nM.

Question: What about the IC50 [4] of the same compound?
Answer: The IC50 was 1880 nM.

Question: Which results are given for `Cc1nn(-c2cc(N[C@H]3CC[C@H](O)CC3)c3c(=O)[nH]c(CC(C)C)cc3c2)c2c1C(=O)CC(C)(C)C2`?
Answer: IC50 [3]: 264 nM; IC50 [4]: > 50000 nM

Question: For `Cc1nn(-c2cc(N[C@H]3CC[C@H](O)CC3)c3c(=O)[nH]c(CO)cc3c2)c2c1C(=O)CC(C)(C)C2`, which IC50 [3] is on record?
Answer: The IC50 was 233 nM.

Question: And the IC50 [4]?
Answer: Its IC50 is 824 nM.

Question: Which IC50 [3] does the source give for `CCCc1cc2cc(-n3nc(C)c4c3CC(C)(C)CC4=O)cc(N3CCN(C(=O)OC(C)(C)C)CC3)c2c(=O)[nH]1` here?
Answer: Its IC50 is 463 nM.

Question: What about the IC50 [4] of the same compound?
Answer: Its IC50 is greater than 50000 nM.

Question: Which IC50 [3] does the source give for `CCCc1cc2cc(-n3nc(C)c4c3CC(C)(C)CC4=O)cc(N3CCOCC3)c2c(=O)[nH]1` here?
Answer: The IC50 was 121 nM.

Question: And the IC50 [4]?
Answer: Its IC50 is greater than 50000 nM.

Question: Which IC50 [3] does the source give for `CCCc1cc2cc(-n3nc(C)c4c3CC(C)(C)CC4=O)cc(N3CCN(C)CC3)c2c(=O)[nH]1` here?
Answer: Its IC50 is 426 nM.

Question: And the IC50 [4]?
Answer: Its IC50 is 8520 nM.

Question: What does the source list for `CCc1cc2cc(-n3nc(C)c4c3CC(C)(C)CC4=O)cc(N[C@H]3CC[C@H](O)CC3)c2c(=O)[nH]1`?
Answer: IC50 [3]: 68 nM; IC50 [4]: 180 nM

Question: Which IC50 [3] does the source give for `CCCC1Cc2cc(-n3nc(C)c4c3CC(C)(C)CC4=O)cc(N3CCC(O)CC3)c2C(=O)N1` (stereo not drawn) here?
Answer: Its IC50 is greater than 5000 nM.

Question: And the IC50 [4]?
Answer: Its IC50 is greater than 10000 nM.

Question: Which IC50 [3] does the source give for `Cc1nn(-c2cc(N[C@H]3CC[C@H](O)CC3)c3c(=O)[nH]c(C(C)C)cc3c2)c2c1C(=O)CC(C)(C)C2` here?
Answer: Its IC50 is 51 nM.

Question: And the IC50 [4]?
Answer: Its IC50 is 173 nM.

Question: What does the source list for `COCc1cc2cc(-n3nc(C)c4c3CC(C)(C)CC4=O)cc(N[C@H]3CC[C@H](O)CC3)c2c(=O)[nH]1`?
Answer: IC50 [3]: 159 nM; IC50 [4]: 306 nM

Question: For `CCCc1cc2cc(-n3nc(C)c4c3CC(C)(C)CC4=O)cc(NC3CCN(C)CC3)c2c(=O)[nH]1`, which IC50 [3] is on record?
Answer: The IC50 was 513 nM.

Question: And the IC50 [4]?
Answer: Its IC50 is 17100 nM.

Question: With `CC(C)c1cc(C(=O)N2Cc3ccccc3C2)c(O)c2cnoc12` as the compound, how does the IC50 (Endoplasmin) read?
Answer: The IC50 was 8.48 µM.

Question: For `Cc1cn(-c2cc3c(c(C4CCCC4)c2)C(=O)NCC3)c2c1C(=O)CC(C)(C)C2`, which IC50 (Endoplasmin) is on record?
Answer: The IC50 was greater than 10 µM.

Question: For `COC1=C2C[C@@H](C)C[C@H](OC)[C@H](O)[C@@H](C)/C=C(\C)[C@H](OC(N)=O)[C@@H](OC)/C=C\C=C(/C)C(=O)NC(=CC1=O)C2=O` [GELDANAMYCIN], which Activity (SK-BR-3 [5]) is on record?
Answer: The Activity was “Toxic”.

Question: For `Cc1nn(-c2cc(N[C@H]3CC[C@H](O)CC3)c3c(=O)[nH]c(C(C)(C)C)cc3c2)c2c1C(=O)CC(C)(C)C2`, which IC50 [3] is on record?
Answer: The IC50 was greater than 50000 nM.

Question: What about the IC50 [4] of the same compound?
Answer: Its IC50 is greater than 50000 nM.

Question: Which IC50 [3] does the source give for `CCCc1cc2cc(-n3nc(C)c4c3CC(C)(C)CC4=O)cc(N(C)CCN(CC)CC)c2c(=O)[nH]1` here?
Answer: Its IC50 is 4460 nM.

Question: And the IC50 [4]?
Answer: Its IC50 is greater than 50000 nM.

Question: For `CCCc1cc2cc(-n3nc(C)c4c3CC(C)(C)CC4=O)cc(N3CCC(O)CC3)c2c(=O)[nH]1`, which Activity (SK-BR-3 [6]) is on record?
Answer: Its Activity is “Non-Toxic”.

Question: What does the source list for `CCCc1cc2cc(-n3nc(C)c4c3CC(C)(C)CC4=O)cc(N3CCNCC3)c2c(=O)[nH]1`?
Answer: IC50 [3]: 4470 nM; IC50 [4]: > 50000 nM

Question: With `CCCC1Cc2cc(-n3nc(C)c4c3CC(C)(C)CC4=O)cc(N[C@H]3CC[C@H](O)CC3)c2C(=O)N1` (stereo partly drawn) as the compound, how does the IC50 [3] read?
Answer: The IC50 was 33 nM.

Question: What about the inhibition [7] of the same compound?
Answer: The inhibition was “inactive”.

Question: What about the inhibition [8] of the same compound?
Answer: Its inhibition is “Active”.

Question: What about the inhibition [9] of the same compound?
Answer: Its inhibition is “Active”.

Question: And the inhibition [10]?
Answer: Its inhibition is “Active”.

Question: And the GI50 [2]?
Answer: The GI50 was less than 100 nM.

Question: What about the inhibition [11] of the same compound?
Answer: Its inhibition is “Active”.

Question: And the IC50 [4]?
Answer: Its IC50 is 1600 nM.

Question: What does the source list for `CCCCc1cc2cc(-n3nc(C)c4c3CC(C)(C)CC4=O)cc(N[C@H]3CC[C@H](O)CC3)c2c(=O)[nH]1`?
Answer: IC50 [3]: 156 nM; IC50 [4]: > 50000 nM

Question: Which IC50 [3] does the source give for `Cc1cc2cc(-n3nc(C)c4c3CC(C)(C)CC4=O)cc(N[C@H]3CC[C@H](O)CC3)c2c(=O)[nH]1` here?
Answer: The IC50 was 101 nM.

Question: What about the IC50 [4] of the same compound?
Answer: Its IC50 is 294 nM.
